Measurements: patent publication US20160113940A1, “METHODS OF TREATING BIOFILMS” (BIOMIMETIX J.V., LLC, priority 2013, published 2016)

Tests used:
[1] = tested on: Biofilm forming Staphylococcus Aureus
Procedure: A total of 20 C57B5 male mice were randomly divided into four treatment groups after surgery to create an infected femur fracture (midshaft femur fracture fixed with intramedullary 23 g needle and with 10^4 S. aureus added to the fracture site):
2. Antibiotic (Keflex) starting 24 hours post-surgery,
3. SOD mimetic MnTE-2-PyP (starting 24 hours post-surgery,
4. Antibiotic plus MnTE-2-PyP (starting 24 hours post-surgery).
The mice were followed for 2 weeks and received daily access to Keflex in drinking water at […] dose for the antibiotic treated groups and MnTE three time per week (loading dose day 1=5.0 mg/kg SQ, followed by 2.5 mg/kg SQ three times weekly). […] Mice were harvested after 2 weeks and femurs were homogenized in PBS, supernatants were serially diluted and plated to determine cell counts.

[2] = tested on: Biofilm forming S. aureus; assay: Inhibition of Staphylococcus aureus biofilm formation in vitro (96 well plates, absorbance at 600 nm); format: cell-based; conditions: established 24 h biofilm, 24 hours further growth after treatment, vs PBS; p<0.0001; FIG. 1
Procedure: Biofilm forming S. aureus was grown in 96 well plates for 24 hours to allow a biofilm to form. Wells were allowed to grow an additional 24 hours after being treated with either PBS or SOD mimetic (Mn (III) tetrakis (N-ethylpyridinium-2-yl) porphyrin, or “MnTE-PyP”). Biofilm intensity was measured using absorbance at 600 nm. […] (p<0.0001)

Row | SMILES | Fracture healing compared to no treatment ([1]; infected femur fracture, 2 wks, FIG. 3) | Mortality ([1]; initial post-operative period, mimetic only group, not felt to be related to the compound) | Biofilm intensity (absorbance at 600 nm) [2]
1 | CC1=C(C(=O)O)N2C(=O)[C@@H](NC(=O)[C@H](N)c3ccccc3)[C@H]2SC1 [Keflex, reference compound] | significantly improved fracture healing |  | 
2 | CC[n+]1ccccc1-c1c2nc(c(-c3cccc[n+]3CC)c3ccc([n-]3)c(-c3cccc[n+]3CC)c3nc(c(-c4cccc[n+]4CC)c4ccc1[n-]4)C=C3)C=C2.[Mn+3] [MnTE-2-PyP, Mn (III) tetrakis (N-ethylpyridinium-2-yl) porphyrin] |  | one mouse died | disrupts established S. aureus biofilms in culture
